According to US6914053B2, “Adenosine A3 receptor agonists” (CV Therapeutics, Inc., priority 2002, dated 2005):

How the values were obtained:
[1] = molecular target: T1, A3 AdoRs (Homo sapiens, UniProt P0DMS8); experiment: Radioligand binding competition with 125I-AB-MECA on membranes of transfected cells; details: competition with 0.2 nM 125I-AB-MECA, membranes of HEK-A3 or CHO-A3, TEM buffer, 90 minutes
T1 construct: expressed in transfected cells; host or cells: HEK-293 or CHO cells (HEK-A3 or CHO-A3), membranes
T1 sequence (P0DMS8 1-318): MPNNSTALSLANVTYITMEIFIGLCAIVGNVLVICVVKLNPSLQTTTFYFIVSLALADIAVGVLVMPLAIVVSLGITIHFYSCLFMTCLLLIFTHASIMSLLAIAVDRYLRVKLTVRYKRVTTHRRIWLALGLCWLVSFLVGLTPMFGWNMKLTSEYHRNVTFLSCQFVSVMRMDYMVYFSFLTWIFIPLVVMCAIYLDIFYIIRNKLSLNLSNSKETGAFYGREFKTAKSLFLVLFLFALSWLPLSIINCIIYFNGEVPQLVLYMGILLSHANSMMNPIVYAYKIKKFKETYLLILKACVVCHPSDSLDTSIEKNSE
Description: Stable transfection of HEK-293 or CHO cells. The cDNAs for human A1, A2A, A2B or A3 AdoRs were prepared by RT-PCR from total RNA of human cells or tissues and sequenced on both strands. The expression vector containing each of these cDNAs and a second vector containing a neomycin or puromycin-resistance gene were introduced to HEK-293 or CHO cells by Lipofectin-Plus (Life Technology). Colonies were selected by growing transfected cells in the presence of neomycin or puromycin. Stably transfected cells were maintained in Dulbecco's modified Eagle's medium (DMEM) or F-12 medium with 10% fetal bovine serum, 100 μg/ml penicillin, 100 μg/ml streptomycin and appropriate concentrations of neomycin or puromycin. These stably transfected cells were referred to as HEK-“AdoR” or CHO-“AdoR” depending on the receptors that they express. For example, cells that were transfected with A3 AdoRs were referred to as HEK-A3 or CHO-A3.
Membrane preparation. Monolayers of transfected cells were washed with phosphate buffered saline (PBS) and harvested in a buffer containing 10 mM HEPES (pH 7.4), 10 mM EDTA and protease inhibitors. The cells were homogenized in polytron for 1 minute at setting 4 and centrifuged at 29000 g for 15 minutes at 4° C. The cell pellets were washed with a buffer containing 10 mM HEPES (pH7.4), 1 mM EDTA and protease inhibitors, and were resuspended in the same buffer supplemented with 10% sucrose. Frozen aliquots were kept at −80° C.
Radioligand binding. The affinities of compounds for A1, A2A, A2B or A3 AdoRs were determined in competition studies using radioligands such as ^3H—CPX (A1 antagonist), or ^3H-CCPA (A1 agonist), ^3H-ZM214385 (A2A antagonist) or ^3H-CGS21680 (A2A agonist), ^3H-ZM214385 (A2B antagonist) or ^125I-AB-MECA (A3 agonist) and membranes of corresponding transfected cells. For example, to determine the affinity for A3 AdoRs, the competition assays were started by mixing 0.2 nM ^125I-AB-MECA with various concentrations of test compounds and 25 ug membrane proteins of HEK-A3 or CHO-A3 in TEM buffer (50 mM Tris, 1 mM EDTA and 10 mM MgCl2) supplemented with 1 U/ml adenosine deaminase. The assays were incubated for 90 minutes, stopped by filtration onto GF/B filter plates using Packard Harvester and washed four times with ice-cold TM buffer (10 mM Tris, 1 mM MgCl2, pH 7.4). The amounts of radioligands that bound to the GF/B filter plates were determined by scintillation counting. Nonspecific binding was determined in the presence of 10 μM R—PIA or 1 μM IB-MECA. Bmax and KD values were calculated using GraphPad software.

SMILES	Ki [1]	melting point
CCCCC#Cc1nc(NOC)c2ncn([C@@H]3O[C@H](CO)[C@@H](O)[C@H]3O)c2n1 [(4S,2R,3R,5R)-2-{2-[2-hex-1-ynyl-6-methoxyamino)purin-9-yl}-5-(hydroxymethyl)oxolane-3,4-diol]	0.681 nM	
CONc1nc(C#Cc2ccccc2)nc2c1ncn2[C@@H]1O[C@H](CO)[C@@H](O)[C@H]1O [Example 6A, (4S,2R,3R,5R)-5-(hydroxymethyl)-2-[6-(methoxyamino)-2-(2-phenylethynyl)purin-9-yl]oxolane-3,4-diol]		175 to 177 °C

Continued, values first:

Ki [1]	melting point	SMILES
0.422 nM		CONc1nc(C#Cc2ccc(F)cc2)nc2c1ncn2[C@@H]1O[C@H](CO)[C@@H](O)[C@H]1O [(4S,2R,3R,5R)-2-{2-[2-(4-fluorophenyl)ethynyl}-6-(methoxyamino)purin-9-yl}-5-(hydroxymethyl)oxolane-3,4-diol]
0.331 nM		CONc1nc(C#Cc2ccc(C)cc2)nc2c1ncn2[C@@H]1O[C@H](CO)[C@@H](O)[C@H]1O [(4S,2R,3R,5R)-5-(hydroxymethyl)-2-[6-(methoxyamino)-2-[(2-(4-methylphenyl)ethynyl]-purin-9-yl]oxolane-3,4-diol]
0.388 nM		CCCCCc1ccc(C#Cc2nc(NOC)c3ncn([C@@H]4O[C@H](CO)[C@@H](O)[C@H]4O)c3n2)cc1 [(4S,2R,3R,5R)-5-hydroxymethyl)-2-{6-(methoxyamino-2-[2-(4-pentylphenylethynyl)]purin-9-yl}oxolane-3,4-diol]
